Measured values published in patent publication US20030175964A1, “Use of eicosanoids for tissue engineering” (Kantonsspital Basel, priority 2000, published 2003).

Legend:
human chondrocytes = assay: Redifferentiation of expanded human chondrocytes in pellet culture, real-time quantitative PCR of differentiation indexes; format: cell-based
Method: Human articular cartilage samples were collected from the hip of 3 patients with no history of joint disease, undergoing joint replacement, following femoral neck fracture.
The cartilage samples were harvested aseptically and digested with 0.15% type II collagenase for 22 hours to isolate primary chondrocytes. The cells were washed and resuspended in Dulbecco's modified Eagles medium (DMEM) supplemented with 10% fetal bovine serum, 4′500 mg/l D-Glucose, nonessential amino acids, 1 mM sodium pyruvate, 100 mM HEPES buffer, 100 U/ml penicillin, 100 μg/ml streptomycin, and 0.29 mg/ml L-glutamine (control medium, CTR). Chondrocytes were seeded into tissue culture flasks at approximately 10^4 cells/cm^2 and cultured in a humidified 37° C./5% CO^2 incubator.
After approximately 10 days, when the cells were confluent, first passage cells (P1) were detached using 0.25% trypsin/1 mM EDTA and replated at 5×10^3 cells/cm^2. After one more week, when the cells reached again confluency, second passage (P2) cells were trypsinised and cultured in pellets. Throughout the expansion phase, cells were cultured in control medium, with or without the addition of 5 ng/ml of Fibroblast Growth Factor-2 (FGF-2).
The cells were suspended at 5×10^5 cells/0.5 ml of serum-free medium (SF) consisting of DMEM supplemented with ITS+1 (containing 10 μg/ml insulin, 5.5 μg/ml transferrin, 5 ng/ml selenium, 0.5 mg/ml bovine serum albumin, 4.7 μg/ml linoleic acid), 0.1 mM ascorbic-acid 2-Phosphate, and 1.25 μg/ml human serum albumin. This suspension was centrifuged at less than 8000 rpm for 15 seconds in polypropylene conical tubes to form spherical pellets which were then statically incubated in a humidified 37° C./5% CO^2 incubator for 24 hours. […]
P, alone or in combination with A and/or D and/or H and/or T, was supplemented to the SF medium during 3D culture of the human chondrocyte cell pellets. After two weeks, the differentiation indexes (CII/CI and Agg/Ver) were assessed. […]
Further, for each primary culture, 2 pellets were formed per experimental group and assessed histologically and for quantitative PCR as described below.
Theoretical Basis. Real-time quantitative PCR monitors the degradation of a sequence-specific, dual-labeled fluorescent probe after each cycle of PCR amplification. […] After subtraction of the background fluorescence, calculated during the first 15 amplification cycles, the measured fluorescence is graphed as an amplification plot. […] The Ct value is correlated to input target mRNA amount: a larger starting quantity of mRNA target results in a lower number of PCR cycles required for the reporter fluorescent emission to reach the threshold, and therefore a lower Ct value. […]

chondrocytes = settings: cited from earlier work
[1] = SF medium supplemented with P, 1 μg/ml, two weeks, vs control culture

Compound	Agg/Ver differentiation index, increase compared to the control culture (human chondrocytes; [1])	CII/CI differentiation index, increase compared to the control culture (human chondrocytes; [1])	effects on differentiation indexes and CI mRNA on chondrocytes expanded with FGF-2 (human chondrocytes; chondrocytes expanded with 5 ng/ml FGF-2, compared with those expanded without FGF-2)	expression of CI (collagen type I) mRNA (human chondrocytes; pellets, SF medium supplemented with P)	cartilaginous tissue formed after seeding onto three-dimensional polymer scaffolds (chondrocytes; chondrocytes expanded in the presence of FGF-2, versus freshly isolated (primary) chondrocytes)	formation of thick F-actin structures during monolayer expansion (chondrocytes; monolayer expansion in the presence of FGF-2)
CCCCC[C@H](O)/C=C/[C@H]1[C@H](O)CC(=O)[C@@H]1C/C=C\CCCC(=O)O [P, prostaglandin E2]	at least 2 orders of magnitude	at least 2 orders of magnitude	comparable	decrease		
FGF-2: fibroblast growth factor-2, growth factor added during monolayer expansion of chondrocytes					histologically and biochemically comparable to that obtain using freshly isolated chondrocytes	inhibits
